Laboratory results as given in patent publication US20190015327A1, “COMPOSITIONS AND METHODS FOR TREATING CONDITIONS RELATED TO LACK OF BLOOD SUPPLY, SHOCK AND NEURONAL INJURIES” (VIVACELLE BIO, INC., priority 2015, published 2019).
Values joined by “and” are separate entries in the source; they are usually repeats but may differ in a detail not shown here. Equal entries are not always repeated.

Experiments:
[1] = Nitric oxide uptake / NO content by mass spectrometry; conditions: 100 ppm nitric oxide in helium, 60 min equilibration
Protocol: Some samples (1 ml each) were left open to air in 2.0 ml tubes for 30 minutes prior to dissolved gas analysis. In other experiments the emulsion was placed into a 15 ml tube. The headspace was filled with the gas under study and the gas was allowed to enter the emulsion by equilibration over 60 minutes with the tube on its side to increase the gas emulsion interaction. 50 μL drawn from each of these fluids were injected into a Sievers purge vessel at 37° C. containing 36 ml of a mildly acidic solution consisting of 32 ml of 1M HCL and 4 ml of 0.5M ascorbic acid. […] Signals generated at m/z=32 upon injection of RL and lipid emulsion samples were integrated using Peakfit and compared to those obtained with distilled water.
In another set of experiments we measured the uptake of nitric oxide by a commercially available 20% soybean oil emulsion, Liposyn III 20%. This emulsion contains 20% soybean oil, 1.2% egg phospholipids and 2.5% glycerin in water. Using NaOH pH was adjusted to 8.3. […] 100 ppm nitric oxide in helium was used to purge the hesdspace for two minutes taking care not to bubble the fluid. For sixty minutes the sample was allowed to reach gas-liquid equilibrium with the tube placed on its side to maximize gas-emulsion contact.
The uptake of NO and O2 by a commercial 20% soybean oil emulsion, Liposyn, was measured using mass spectrometry. […] To approximate field conditions, no warming or respiratory support was provided. Next, 55% of blood volume was removed within 2 minutes. […] The time of clinical death was defined as the cessation of respiration. […] In 5 mice a volume of Ringer's lactate equal to the volume of blood removed was administered via the internal jugular vein over 2 minutes immediately after the loss of chest wall movement. […] In 6 mice a volume of Ringer's lactate equal to the volume of blood removed was administered via the carotid artery over 2 minutes. […] In the next set of experiments, infusing Ringers' lactate was delayed for 3 minutes. […] A volume of emulsion equal to the volume of blood that had been removed was infused.

[2] = 1 atm; from The Engineering Toolbox; cited from earlier work
[3] = published value; cited from earlier work

Row | Compound | NO Content, Mean [1] [mol/L] | NO Content, single samples [1] | Oxygen Content at 25° C. and Sea level Pressure [2] [mg/L] | oxygen release time [3] [ms]
1 | O [Water] | 1.77 | 2.29 mol/L and 1.52 mol/L and 1.63 mol/L and 1.72 mol/L and 1.69 mol/L | 8.3 | 
2 | hemoglobin |  |  |  | 17.5
